“And” between values parts separate entries of the source, which are not always exact repeats. Identical values can stand only once.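 All cell lines were grown in 96-well plates and treated with compound for 48 hours. The concentration for 50% growth inhibition is given as GI50. Definition used: TGI = concentration required for complete inhibition of growth.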
Each compound was assayed on MDA-MB-468 breast (assay: NCI tumour cell line growth inhibition, 48 h).

What does the source list for `COc1ccc(-n2c(N)c(C(=O)NCCN3CCOCC3)c3nc4ccccc4nc32)cc1OC`?
GI50: 17900 nM; TGI: > 100 µM

With `CCOc1ccc2c(c1)/C(=C\C=C\C1CC(C)C3CC(OCC)CCC3N1CC)CC(C)N2CC` (configuration not stated) as the compound, how does the GI50 read?
Its GI50 is 280 nM.

What about the TGI of the same compound?
Its TGI is 1.11 µM.

For `CSC(=S)N/N=C(\C)c1ccccn1`, which GI50 is on record?
The GI50 was 68.5 nM.

And the TGI?
Its TGI is 1.21 µM.

Which GI50 does the source give for `Cc1ccccc1NC(=O)NC(CC(N)=O)c1ccc2c(c1)nc(-c1cccc(Oc3ccc(C(C)(C)C)cc3)c1)n2CCCN1CCCCC1C` (configuration not stated) here?
Its GI50 is 1780 nM.

And the TGI?
Its TGI is 3.28 µM.

`Nc1nc(N)c2c(n1)NC(c1ccccc1)CC(c1ccc(Nc3nc(NCCO)nc(Nc4ccc(Cl)cc4)n3)cc1)=N2` (configuration not stated) was tested. Which GI50 did it give?
The GI50 was 1510 nM.

What about the TGI of the same compound?
The TGI was 2.99 µM.

For `COc1cc(-c2ccc(-c3ccc(C(=N)N)s3)s2)cc(OC)c1OC`, which GI50 is on record?
Its GI50 is 1820 nM.

And the TGI?
The TGI was 3.7 µM.

With `O=C(CCN1CCCC1)Nc1ccc2c(NCCCCc3ccccc3)c3ccccc3nc2c1` as the compound, how does the GI50 read?
Its GI50 is 811 nM.

And the TGI?
The TGI was 2.12 µM.

Which GI50 does the source give for `O=[N+]([O-])c1ccc2[nH]cc(-c3c4ccccc4cc4[nH]c5ccc([N+](=O)[O-])cc5c34)c2c1` here?
Its GI50 is 2500 nM.

And the TGI?
The TGI was 7.71 µM.

With `CS(=O)(=O)c1nccc(-c2c(-c3cccc(OCc4ccc(Cl)c(C(F)(F)F)c4)c3)nc3sccn23)n1` as the compound, how does the GI50 read?
Its GI50 is 859 nM.

What about the TGI of the same compound?
Its TGI is 1.66 µM.

With `C=C1C(=O)O[C@H]2[C@H]1CC/C(Cn1cc(CCC)nn1)=C\CC[C@@]1(C)O[C@@H]21` as the compound, how does the GI50 read?
The GI50 was 3650 nM.

What about the TGI of the same compound?
The TGI was 14.9 µM.

For `CNCCNc1nc2ccccc2c2c(=O)c3cccc(OC)c3sc12`, which GI50 is on record?
Its GI50 is 1450 nM.

What about the TGI of the same compound?
Its TGI is 3.06 µM.

Which results are given for `C[n+]1c2ccccc2c(NC2CCNCC2)c2[nH]c3ccccc3c21`?
GI50: 200 nM; TGI: 1.26 µM

What does the source list for `Oc1ccc2ccccc2c1/C=N\Nc1ccccn1`?
GI50: 1590 nM; TGI: 4.87 µM

Which GI50 does the source give for `Cc1ccc(/C=C(\C#N)n2nnc3cc(F)c(F)cc32)cc1` here?
The GI50 was 10300 nM.

What about the TGI of the same compound?
The TGI was 44.4 µM.

`CCCCCCCCSC1=CC(=O)C(OC)=C(OC)C1=O` was tested. Which GI50 did it give?
Its GI50 is 1430 nM.

And the TGI?
Its TGI is 2.97 µM.

Which GI50 does the source give for `CCCCOC(=O)N[C@H]1CCc2cc(OC)c(OC)c(OC)c2-c2ccc(SC)c(=O)cc21` here?
The GI50 was < 10 nM.

And the TGI?
The TGI was 19.4 µM.

`C=C1C(=O)O[C@@H]2/C=C(/C)C3=CC(=O)[C@@](C)(C[C@H](OC(=O)/C(C)=C\C)[C@@H]12)O3` was tested. Which GI50 did it give?
The GI50 was 1140 nM.

And the TGI?
The TGI was 5.03 µM.

Which results are given for `Cn1c2ccccc2c2c3c(c4c5ccccc5n(CCCCCC#N)c4c21)C(=O)N(O)C3=O`?
GI50: 683 nM; TGI: 6.12 µM

With `COc1cccc2c1C(=O)c1c(O)c3c(c(O)c1C2=O)C[C@@](O)(C(C)=O)C[C@@H]3OC1CC(N)C(O)C(C)O1` (some centres not stated) as the compound, how does the GI50 read?
Its GI50 is 62.3 nM.

And the TGI?
The TGI was 0.313 µM.

What does the source list for `O=C1NC(=NCc2ccccn2)S/C1=C\c1ccc2ncccc2c1`?
GI50: 5970 nM; TGI: > 25 µM

Which results are given for `CCN1C(=O)N(c2c(F)c(OC)cc(OC)c2F)Cc2cnc3[nH]c(CN4CCOCC4)cc3c21`?
GI50: 2290 nM; TGI: 55.9 µM

`COC(=O)c1ccc2c(c1)nc(-c1ccc(Cl)cc1)n2-c1cc(C(C)(C)C)[nH]n1` was tested. Which GI50 did it give?
The GI50 was 2400 nM.

And the TGI?
Its TGI is 7.98 µM.

Which GI50 does the source give for `COc1ccc(C2CC(c3cc(OC)c(OC)c(OC)c3)=NN2)cc1` (configuration not stated) here?
Its GI50 is 4350 nM.

And the TGI?
The TGI was 64.5 µM.

With `CC(C)(C)CC(C)(C)Cc1ccc(OCCOCC[N+](C)(C)Cc2ccccc2)cc1` as the compound, how does the GI50 read?
Its GI50 is 235 nM.

And the TGI?
Its TGI is 1.2 µM.

How did the GI50 turn out when `COc1ccc(/C=C(/C(=O)N2CCNCC2)c2cc(OC)c(OC)c(OC)c2)cc1O` was run?
Its GI50 is 2270 nM.

What about the TGI of the same compound?
The TGI was 9.71 µM.

Which results are given for `CN(C)CCn1cc(-c2ccc3c(Nc4ccc(CC(=O)Nc5cccc(F)c5)cc4)ncnc3c2)cn1`?
GI50: 1260 nM; TGI: 2.85 µM

With `Cn1c(=O)c(F)c(Nc2ccc(I)cc2F)c2c(=O)n(C[C@@H](O)CO)cnc21` as the compound, how does the GI50 read?
The GI50 was 1800 nM and 590 nM.

And the TGI?
The TGI was 8.66 µM and > 2.09 µM.

`Cc1ccc2c(n1)C(=O)C(Cl)=C(Nc1ccc(C(C)C)cc1)C2=O` was tested. Which GI50 did it give?
Its GI50 is 512 nM.

What about the TGI of the same compound?
Its TGI is 1.85 µM.

What does the source list for `O=C1NC(=NCCc2ccccc2Cl)S/C1=C\c1ccc2ncccc2c1`?
GI50: 2170 nM; TGI: > 18.3 µM

What does the source list for `Nc1nc(Cl)nc2c1ncn2C1O[C@H](CO)[C@@H](O)[C@@H]1F` (some centres not stated)?
GI50: 387 nM; TGI: 21.8 µM

How did the GI50 turn out when `Cc1ccc(/C=C2\CCOC2=O)cc1` was run?
The GI50 was > 100000 nM.

What about the TGI of the same compound?
The TGI was > 100 µM.

Which results are given for `NC(=O)NC(=O)CI`?
GI50: 2480 nM; TGI: 7.73 µM

How did the GI50 turn out when `Cn1c(=O)c(Cc2ccc(F)cc2F)cc2cnc(NC3CCOCC3)nc21` was run?
The GI50 was 19600 nM.

And the TGI?
The TGI was > 25 µM.

What does the source list for `C=C1C(=O)O[C@H]2[C@H]1CC/C(COC(=O)CCC(=O)OC/C1=C/CC[C@@]3(C)O[C@H]3[C@H]3OC(=O)C(=C)[C@@H]3CC1)=C\CC[C@@]1(C)O[C@@H]21`?
GI50: 1560 nM; TGI: 4.83 µM

Which GI50 does the source give for `COc1ccccc1Nc1nc(-c2cc3cccc(C(F)(F)F)c3oc2=O)cs1` here?
Its GI50 is 97 nM.

And the TGI?
Its TGI is 0.71 µM.

How did the GI50 turn out when `COc1ccc(C(=O)Nc2cccc(C3CC(=O)c4c(cc(OC)c(OC)c4OC)O3)c2)cc1` (configuration not stated) was run?
Its GI50 is 940 nM.

What about the TGI of the same compound?
Its TGI is > 100 µM.

Which results are given for `Cc1nc2cc(O)c(O)cc2cc1Oc1ccc(NC(=O)Nc2ccc(Cl)c(Cl)c2)cc1`?
GI50: 6990 nM; TGI: 17.4 µM

Which GI50 does the source give for `Fc1ccc(Nc2nc(Nc3ccc(-c4nc5ccccc5[nH]4)cc3)nc(N3CCCC3)n2)cc1` here?
Its GI50 is 2750 nM.

And the TGI?
The TGI was 6.74 µM.

Which results are given for `CN1CCC(n2cc(Nc3ncc4c(=O)n(-c5c(Cl)cccc5Cl)cc(Br)c4n3)cn2)CC1`?
GI50: 937 nM; TGI: 7.27 µM

With `COC(=O)c1c(-c2ccccc2)csc1NC(=O)c1c(-c2ccccc2)noc1C` as the compound, how does the GI50 read?
Its GI50 is 3200 nM.

And the TGI?
Its TGI is > 100 µM.

For `COc1ccc(/C=N/NC2=NC3C(S2)N(C)C(=O)N3C)cc1` (configuration not stated), which GI50 is on record?
Its GI50 is 1950 nM.

What about the TGI of the same compound?
The TGI was 5.35 µM.

Source: PubChem BioAssay (NCI)
